The IC50 is the concentration at which inhibition is half-maximal.

Drawing on patent US10316049B2, “Tank-binding kinase inhibitor compounds” (Gilead Sciences, Inc., priority 2015, dated 2019), this text covers IC50 for 19 compounds.

For one experiment, the target named is T1, TBK1 (Homo sapiens, UniProt Q9UHD2).
T1 construct: TBK1 and IKKε were expressed and purified as full length recombinant proteins; made in house
T1 sequence (Q9UHD2 1-729): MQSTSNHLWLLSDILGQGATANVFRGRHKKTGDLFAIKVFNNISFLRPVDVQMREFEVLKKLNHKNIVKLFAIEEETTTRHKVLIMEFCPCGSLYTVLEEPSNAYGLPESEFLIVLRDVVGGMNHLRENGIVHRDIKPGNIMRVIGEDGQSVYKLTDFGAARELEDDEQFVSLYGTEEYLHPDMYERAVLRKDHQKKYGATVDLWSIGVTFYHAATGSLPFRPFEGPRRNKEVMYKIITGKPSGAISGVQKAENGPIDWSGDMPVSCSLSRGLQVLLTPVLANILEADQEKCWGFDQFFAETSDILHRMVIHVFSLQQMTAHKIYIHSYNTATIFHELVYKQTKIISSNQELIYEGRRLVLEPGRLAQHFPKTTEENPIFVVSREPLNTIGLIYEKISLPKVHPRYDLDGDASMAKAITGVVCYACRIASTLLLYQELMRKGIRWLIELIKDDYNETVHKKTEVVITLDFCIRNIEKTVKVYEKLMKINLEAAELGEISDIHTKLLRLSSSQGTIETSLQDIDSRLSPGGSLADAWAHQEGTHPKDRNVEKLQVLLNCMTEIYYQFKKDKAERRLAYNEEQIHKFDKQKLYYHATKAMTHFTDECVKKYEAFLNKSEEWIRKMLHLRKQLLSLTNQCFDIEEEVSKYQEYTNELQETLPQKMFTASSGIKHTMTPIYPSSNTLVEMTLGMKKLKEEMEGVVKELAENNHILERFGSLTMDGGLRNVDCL
Nature of the experiment: TR-FRET enzymatic activity assay, TBK1. Note: full length recombinant TBK1 at 2.5 nM. The experiment is classed as biochemical. Put shortly: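 TR-FRET detected phosphorylation of a biotinylated serine/threonine peptide using 125 nM streptavidin XL665 plus europium-labelled anti-phospho antibody. Reactions with full-length recombinant kinase ran 240 min at 25 °C before EDTA quench. Values are geometric-mean IC50s (n ≥ 4) from four-parameter dose-response fits against staurosporine and DMSO controls.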
(In general: Time-resolved FRET reads energy transfer from a long-lived donor to a nearby acceptor.)

Another experiment concerns the target T2, IKKε (Homo sapiens, UniProt Q14164).
T2 construct: TBK1 and IKKε were expressed and purified as full length recombinant proteins; made in house
T2 sequence (Q14164 1-716): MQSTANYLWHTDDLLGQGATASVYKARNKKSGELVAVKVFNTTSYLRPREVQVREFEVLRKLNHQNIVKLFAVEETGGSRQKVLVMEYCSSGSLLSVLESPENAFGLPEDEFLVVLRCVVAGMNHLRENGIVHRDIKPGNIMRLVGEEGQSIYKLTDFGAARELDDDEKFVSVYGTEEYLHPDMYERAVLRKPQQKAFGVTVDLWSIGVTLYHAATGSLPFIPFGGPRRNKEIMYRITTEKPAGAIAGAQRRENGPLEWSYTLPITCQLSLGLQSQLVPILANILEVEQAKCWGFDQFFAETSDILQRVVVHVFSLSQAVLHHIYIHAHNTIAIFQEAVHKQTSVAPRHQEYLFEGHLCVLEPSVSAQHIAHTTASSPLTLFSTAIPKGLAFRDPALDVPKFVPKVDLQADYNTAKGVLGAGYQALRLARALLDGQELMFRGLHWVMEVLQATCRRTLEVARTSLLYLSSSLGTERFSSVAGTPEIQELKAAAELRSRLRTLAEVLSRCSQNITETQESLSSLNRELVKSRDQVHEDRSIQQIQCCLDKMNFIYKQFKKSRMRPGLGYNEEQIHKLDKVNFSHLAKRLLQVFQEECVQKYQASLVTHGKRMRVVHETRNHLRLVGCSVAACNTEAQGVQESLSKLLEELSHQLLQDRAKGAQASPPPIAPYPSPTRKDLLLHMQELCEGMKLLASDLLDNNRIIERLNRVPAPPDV
Nature of the experiment: TR-FRET enzymatic activity assay, IKKε. Note: full length recombinant IKKε at 0.3 nM. The experiment is classed as biochemical. The settings on record: read-out: IKKϵ IC50. Put shortly: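 IC50 values are geometric means of at least four determinations, fitted to a four-parameter curve after normalising to 1 μM staurosporine and DMSO. Signal: Eu-cryptate anti-phospho antibody plus 125 nM streptavidin-XL665 on a biotinylated peptide. Full-length recombinant enzyme reacted 240 min, 25 °C, then EDTA-quenched.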

Consider `N#Cc1cc(-c2ccnc(NC(=O)C3CC3)c2)ncc1O[C@H]1CCN(C(=O)CO)C[C@H]1F` [Example 24, N-(4-cyano-5-(((3R,4S)-3-fluoro-1-(2-hydroxyacetyl)piperidin-4-yl)oxy)-[2,4′-bipyridin]-2′-yl)cyclopropanecarboxamide], for which the values for the IC50 at TBK1 and on IKKε were 86.1 nM and 192 nM, respectively.

With `N#Cc1cc(-c2cc(NC(=O)C3CC3)ncn2)ccc1O[C@@H]1CCN(C(=O)CO)CC1(F)F` [Example 110, (R)—N-(6-(3-cyano-4-((3,3-difluoro-1-(2-hydroxyacetyl)piperidin-4-yl)oxy)phenyl)pyrimidin-4-yl)cyclopropanecarboxamide], the concentration for half-maximal inhibition (IC50) against TBK1 amounted to 317 nM; on IKKε, 737 nM.

Turning to `N#Cc1cc(-c2ccnc(NC(=O)[C@@H]3C[C@H]3c3ccco3)c2)ccc1OC1CCOCC1` (relative stereo) [Example 150, Trans-N-(4-(3-cyano-4-((tetrahydro-2H-pyran-4-yl)oxy)phenyl)pyridin-2-yl)-2-(furan-2-yl)cyclopropane-1-carboxamide], the figures for the IC50 against TBK1 and at IKKε were 70.5 nM and 636 nM, respectively.

As for `C[C@H]1C[C@@H](Oc2ccc(-c3cc(NC(=O)C4CC4)ncn3)cc2C#N)CCN1C(=O)CO` [Example 112, N-(6-(3-cyano-4-(((2S,4S)-1-(2-hydroxyacetyl)-2-methylpiperidin-4-yl)oxy)phenyl)pyrimidin-4-yl)cyclopropanecarboxamide], the IC50 at TBK1 came to 107 nM; on IKKε it was 209 nM.

Turning to `N#Cc1cc(-c2ccnc(NC(=O)C3CC3)c2)ccc1N1CC[C@@H](O)C1` [Example 17, (R)—N-(4-(3-cyano-4-(3-hydroxypyrrolidin-1-yl)phenyl)pyridin-2-yl)cyclopropanecarboxamide], the IC50 at TBK1 came out at 41.6 nM; at IKKε it was 232 nM.

For the compound `C[C@H](N)C(=O)OCC(=O)N1CC[C@H](Oc2ccc(-c3cc(NC(=O)C4CC4)ncn3)cc2C#N)C(F)(F)C1` [Example 159, 2-((S)-4-(2-cyano-4-(6-(cyclopropanecarboxamido)pyrimidin-4-yl)phenoxy)-3,3-difluoropiperidin-1-yl)-2-oxoethyl L-Alaninate], the IC50 came out at 12.8 nM on TBK1 and 39.3 nM on IKKε.

Regarding `Cn1cc(C2CC2C(=O)Nc2cc(-c3ccc(O[C@H]4CCN(C(=O)CO)C[C@H]4F)c(C#N)c3)ccn2)cn1` (stereo partly drawn) [Example 77, N-(4-(3-cyano-4-(((3R,4S)-3-fluoro-1-(2-hydroxyacetyl)piperidin-4-yl)oxy)phenyl)pyridin-2-yl)-2-(1-methyl-1H-pyrazol-4-yl)cyclopropane-1-carboxamide], the results for the concentration for half-maximal inhibition (IC50) against TBK1 and at IKKε were 10.3 nM and 24.7 nM, respectively.

On to `N#Cc1cc(-c2ccnc(NC(=O)C3CC3)c2)ccc1N1CCC[C@H]1CO` [Example 93, (S)—N-(4-(3-cyano-4-(2-(hydroxymethyl)pyrrolidin-1-yl)phenyl)pyridin-2-yl)cyclopropanecarboxamide], for which the IC50 at TBK1 amounted to 70.3 nM; at IKKε, 508 nM.

In the case of `N#Cc1cc(-c2ccnc(NC(=O)[C@@H]3C[C@H]3CO)c2)ccc1OC1CCOCC1` (relative stereo) [Example 42, (1,2-trans)-N-(4-(3-cyano-4-((tetrahydro-2H-pyran-4-yl)oxy)phenyl)pyridin-2-yl)-2-(hydroxymethyl)cyclopropane-1-carboxamide], the concentration for half-maximal inhibition (IC50) at TBK1 was found to be 62.1 nM; on IKKε it was 48.2 nM.

On to `N#Cc1cc(-c2cc(NC(=O)C3CC3)ncn2)ccc1O[C@H]1CCN(C(=O)[C@@H]2COC(=O)N2)CC1(F)F` [Example 155, N-(6-(3-cyano-4-(((S)-3,3-difluoro-1-((S)-2-oxooxazolidine-4-carbonyl)piperidin-4-yl)oxy)phenyl)pyrimidin-4-yl)cyclopropanecarboxamide], for which the half-inhibitory concentration (IC50) turned out to be 7 nM on TBK1 and 52.6 nM on IKKε.

On to `N#Cc1cc(-c2ccnc(NC(=O)[C@H]3C[C@@H]3c3cccnc3)c2)ccc1O[C@H]1CCN(C(=O)CO)CC1(F)F` [Example 142, (1S,2S)—N-(4-(3-cyano-4-(((S)-3,3-difluoro-1-(2-hydroxyacetyl)piperidin-4-yl)oxy)phenyl)pyridin-2-yl)-2-(pyridin-3-yl)cyclopropane-1-carboxamide], for which the figures for the IC50 against TBK1 and on IKKε were 5.7 nM and 6 nM, respectively.

For the compound `CO[C@H]1CCN(c2ccc(-c3ccnc(NC(=O)C4CC4)c3)cc2C#N)C1` [Example 94, (S)—N-(4-(3-cyano-4-(3-methoxypyrrolidin-1-yl)phenyl)pyridin-2-yl)cyclopropanecarboxamide], the IC50 was found to be 120 nM against TBK1 and 195 nM on IKKε.

Take `CN(C)C(=O)[C@@H]1C[C@@H]1C(=O)Nc1cc(-c2ccc(O[C@H]3CCN(C(=O)CO)C[C@H]3F)c(C#N)c2)ccn1` [Example 79, (1,2-cis)-N^1-(4-(3-cyano-4-(((3R,4S)-3-fluoro-1-(2-hydroxyacetyl)piperidin-4-yl)oxy)phenyl)pyridin-2-yl)-N^2,N^2-dimethylcyclopropane-1,2-dicarboxamide]: the IC50 at TBK1 and at IKKε was above 1000 nM each time.

As to `N#Cc1cc(-c2ccnc(NC(=O)C3CC3c3c[nH]cn3)c2)ccc1O[C@H]1CCN(C(=O)CO)C[C@H]1F` (stereo partly drawn) [Example 81, N-(4-(3-Cyano-4-(((3R,4S)-3-fluoro-1-(2-hydroxyacetyl)piperidin-4-yl)oxy)phenyl)pyridin-2-yl)-2-(1H-imidazol-4-yl)cyclopropane-1-carboxamide], the IC50 against TBK1 turned out to be 18.8 nM; at IKKε it was 47 nM.

For `Cc1noc([C@@H]2C[C@H]2C(=O)Nc2cc(-c3ccc(OC4CCOCC4)c(C#N)c3)ccn2)n1` [Example 108, (1R,2R)—N-(4-(3-cyano-4-((tetrahydro-2H-pyran-4-yl)oxy)phenyl)pyridin-2-yl)-2-(3-methyl-1,2,4-oxadiazol-5-yl)cyclopropane-1-carboxamide], the figures for the 50% inhibitory concentration (IC50) on TBK1 and at IKKε were 186 nM and 322 nM, respectively.

Turning to `Cc1n[nH]c(C(=O)N2CC[C@H](Oc3ccc(-c4cc(NC(=O)C5CC5)ncn4)cc3C#N)C(F)(F)C2)n1` [Example 34, (S)—N-(6-(3-cyano-4-((3,3-difluoro-1-(3-methyl-1H-1,2,4-triazole-5-carbonyl)piperidin-4-yl)oxy)phenyl)pyrimidin-4-yl)cyclopropanecarboxamide], the values for the IC50 at TBK1 and at IKKε were 4.2 nM and 4.6 nM, respectively.

Turning to `N#Cc1cc(-c2cc(NC(=O)[C@@H]3C[C@H]3c3cccnc3)ncn2)ccc1O[C@H]1CCN(C(=O)[C@@H](O)CO)CC1(F)F` [Example 144, (1,2-Trans)-N-(6-(3-cyano-4-(((S)-1-((S)-2,3-dihydroxypropanoyl)-3,3-difluoropiperidin-4-yl)oxy)phenyl)pyrimidin-4-yl)-2-(pyridin-3-yl)cyclopropane-1-carboxamide], the results for the IC50 against TBK1 and on IKKε were 7.1 nM and 9 nM, respectively.

Take `N#Cc1cc(-c2ccnc(NC(=O)C3CCCCC3)c2)ccc1OC1CCOCC1` [Example 1, N-(4-(3-cyano-4-((tetrahydro-2H-pyran-4-yl)oxy)phenyl)pyridin-2-yl)cyclohexanecarboxamide]: the results for the half-maximal inhibitory concentration (IC50) against TBK1 and at IKKε were 755 nM and 331 nM, respectively.

In the case of `N#Cc1cc(-c2cc(NC(=O)C3CC3)ncn2)ccc1O[C@H]1CCN(C(=O)[C@@H]2CCC(=O)N2)CC1(F)F` [Example 152, N-(6-(3-cyano-4-(((S)-3,3-difluoro-1-((S)-5-oxopyrrolidine-2-carbonyl)piperidin-4-yl)oxy)phenyl)pyrimidin-4-yl)cyclopropanecarboxamide], the half-maximal inhibitory concentration (IC50) stood at 9.4 nM at TBK1 and 53.3 nM at IKKε.
